ChEMBL document CHEMBL1155353, “Isatin derivatives, a novel class of transthyretin fibrillogenesis inhibitors” (Bioorg Med Chem Lett, 2009)
Active and inactive are the calls of the source. No cut-off for these calls is given here.

What was measured:
Transthyretin [1] = target: T1, Transthyretin (Homo sapiens, UniProt P02766); experiment: Inhibition of TTR mediated fibrillogenesis assessed as acid-induced protein aggregation turbidity after 1.5 hrs by turbidimetric assay relative to control; design: concentration or dose not given beside the values
Transthyretin [2] = target: T1, Transthyretin; experiment: Displacement of [125I]thyroxin from TTR
Transthyretin [3] = target: T1, Transthyretin; experiment: Inhibition of TTR mediated fibrillogenesis assessed as acid-induced protein aggregation turbidity at […] after 1.5 hrs by turbidimetric assay relative to control; design: scale not given: the % may be the effect or the level left
Transthyretin [4] = target: T1, Transthyretin; experiment: Inhibition of TTR mediated fibrillogenesis assessed as acid-induced protein aggregation turbidity after 1.5 hrs by turbidimetric assay
Transthyretin [5] = target: T1, Transthyretin; experiment: Binding affinity to TTR at 40 uM by isothermal titration calorimetry

| Structure (SMILES) | Activity (Transthyretin [1]) | Activity (Transthyretin [2]) | Activity (Transthyretin [3]) | IC50 (Transthyretin [4]) | Activity (Transthyretin [5]) |
| --- | --- | --- | --- | --- | --- |
| N[C@@H](Cc1cc(I)c(Oc2cc(I)c(O)c(I)c2)c(I)c1)C(=O)O | 95% | inactive | – | – | – |
| O=C1Nc2ccc([N+](=O)[O-])cc2/C1=N/c1ccc(I)cc1 | 7% | inactive | 7% | > 50 µM | – |
| COc1ccc(/N=C2\C(=O)Nc3ccccc32)cc1 | 100% | inactive | – | – | – |
| O=C1Nc2ccc(I)cc2/C1=N/c1ccccc1 | 1% | inactive | – | > 50 µM | – |
| Oc1c(I)cc(I)cc1I [TRIIODOPHENOL] | 80% | inactive | – | 3.2 µM | – |
| Cc1ccc2c(c1)/C(=N/c1ccc(I)cc1)C(=O)N2 | inactive | inactive | 7% | > 50 µM | – |
| CN1C(=O)/C(=N\c2ccc([N+](=O)[O-])cc2)c2ccccc21 | 86% | inactive | – | 6.3 µM | – |
| O=C1Nc2ccc(Br)cc2/C1=N/c1ccc(I)cc1 | 16% | inactive | – | > 50 µM | – |
| Cc1ccc(/N=C2\C(=O)Nc3ccccc32)cc1 | – | inactive | 14% | > 50 µM | – |
| Cc1ccc(/N=C2\C(=O)N(C)c3ccccc32)cc1 | 8.6% | inactive | – | 6.3 µM | – |
| CN1C(=O)/C(=N\c2ccc(I)cc2)c2ccccc21 | 0% | inactive | – | > 50 µM | – |
| COc1ccc(/N=C2\C(=O)N(C)c3ccccc32)cc1 | 81% | inactive | – | 7.7 µM | – |
| O=C1Nc2ccccc2/C1=N/c1ccc(I)cc1 | 0% | inactive | – | > 50 µM | – |
| CN1C(=O)C(=O)c2ccccc21 | 100% | inactive | – | 6.3 µM | – |
| COc1ccc(/N=C2\C(=O)Nc3ccc([N+](=O)[O-])cc32)cc1 | 24% | inactive | – | > 50 µM | – |
| COc1ccc(/N=C2\C(=O)Nc3ccc(I)cc32)cc1 | 42% | inactive | – | > 50 µM | – |
| COc1ccc(/N=C2\C(=O)Nc3ccc(Br)cc32)cc1 | 48% | inactive | – | > 50 µM | – |
| COc1ccc(/N=C2\C(=O)Nc3ccc(C)cc32)cc1 | 32% | inactive | – | > 50 µM | – |
| CN1C(=O)/C(=N\c2ccccc2)c2ccccc21 | 77% | inactive | – | 11 µM | – |
| O=C1Nc2ccc(I)cc2/C1=N/c1ccc(I)cc1 | 23% | inactive | – | > 50 µM | – |
| O=C1Nc2ccccc2/C1=N/c1ccc([N+](=O)[O-])cc1 | 90% | inactive | – | 2.8 µM | inactive |
| COc1ccc(/N=C2/C(=O)Nc3ccccc32)cc1 | – | – | – | 8.1 µM | – |
| O=C1Nc2ccccc2C1=O [ISATIN] | – | inactive | 24% | > 50 µM | – |
